The values that follow come from article PMC6688628, “N-Substituted Pyrrole Derivative 12m Inhibits HIV-1 Entry by Targeting Gp41 of HIV-1 Envelope Glycoprotein” (Frontiers in Pharmacology, 2019).

Where two headings read alike, the source gives them in different places.

In one experiment the test system is HIV-1 92UG029. The experiment in a line: Anti-HIV-1 activity, primary strain 92UG029. Type of experiment: cell-based. The conditions noted are these: luciferase readout, mean ± SD.
Another experiment relates to HIV-1 93/BR/020. Kind of experiment: microbe, parasite or virus in culture. Type of experiment: cell-based. The method, then:
(§1) The HIV-1 replication-inhibiting activity of compounds was determined as previously described ([Li et al., 2013]). Briefly, 1 × 10^4 TZM-bl or MT-2 cells were infected with primary HIV-1 strains or T20-resistant HIV-1 strains (100 TCID50) in 200 µl of RPMI-1640 medium containing 10% FBS in the presence or absence of compounds at graded concentrations for 12 h. The culture medium was replaced with fresh medium without the compounds. After culture for an additional 48 h, supernatants or cells were collected from each well. For the primary HIV-1 strains, the cells were treated using a luciferase kit. Briefly, the cells were lysed with the lysis reagent and were transferred into a 96-well flat-bottom luminometer plate after three washes with phosphate-buffered saline (PBS) (Costar Corning Inc., Corning, NY), followed by addition of the luciferase substrate included in the luciferase kit (Promega Corp., Madison, WI). The luciferase activity was measured immediately by an Ultra 384 microplate reader (Tecan, Research Triangle Park, NC). T20 was used as a positive control. For the T20-resistant HIV-1 strains, 100 µl of culture supernatant was mixed with 100 µl of 5% Triton X-100. Then, those virus lysates were assayed for p24 antigen by enzyme linked immunosorbent assay (ELISA) as previously described ([Li et al., 2010]). Absorbance at 450 nm was recorded in an ELISA reader (Ultra 384, Tecan). EC50 values were calculated using the computer program CalcuSyn ([Chou and Talalay, 1984]).

The subject of the next experiment is HIV-1 BCF02. The experiment in a line: microbe, parasite or virus in culture. Type of experiment: cell-based. As to the method:
as §1

The subject of the next experiment is HIV-1 US4 (GS 007). Kind of experiment: microbe, parasite or virus in culture. Type of experiment: cell-based. The method, then: as §1
A further experiment concerns HIV-1 NL4-3D36G. The class given is cell-based. The conditions noted are these: T20-sensitive parent strain, p24 ELISA, mean ± SD.
Experiment [1] has as its system HIV-1JR-FL Env mutant K574A pseudovirus. Type of experiment: cell-based. The conditions noted are these: compared with wild-type HIV-1JR-FL pseudovirus.
Experiment [2] concerns HIV-1 NL4-3(36G)V38A,N42D. The note with it: T20-resistant NL4-3(36G)V38A,N42D; p24 ELISA; mean ± SD. For orientation: In an ELISA, binding on a coated surface is turned into a signal by an enzyme label.
For another experiment, the system named is HIV-1 NL4-3(36G)V38A. The note with it: T20-resistant NL4-3(36G)V38A; p24 ELISA; mean ± SD.
Experiment [3] deals with HIV-1 NL4-3(36G)N42T,N43K. The conditions noted are these: T20-resistant NL4-3(36G)N42T,N43K; p24 ELISA; mean ± SD.
The test system of experiment [4] is HIV-1 NL4-3(36G)V38E,N42S. The note with it: T20-resistant NL4-3(36G)V38E,N42S; p24 ELISA; mean ± SD.
Experiment [5] relates to HIV-1 NL4-3(36G)V38A,N42T. The note with it: T20-resistant NL4-3(36G)V38A,N42T; p24 ELISA; mean ± SD.
For experiment [6], the system named is R5 and X4 HIV-1 strains (Env pseudotyped viruses). The class given is cell-based.
The next experiment concerns HIV-1. Further details: method as in Jiang et al., 2004. The conditions noted are these: inhibition of HIV-1 entry; ref Jiang et al., 2004; cited from earlier work.

One may read the IC50 as the concentration needed to halve the response being measured. As a reminder, the IC90 is the concentration at which the effect reaches the 90% level. Turning to `COc1ccc(S(=O)(=O)[O-])cc1N=Nc1c(S(=O)(=O)[O-])cc2cc(Nc3nc(Nc4ccccc4)nc(Nc4cc(C)c(N=Nc5cc(S(=O)(=O)[O-])cc6cc(S(=O)(=O)[O-])cc(O)c56)cc4OC)n3)ccc2c1O.[Na+].[Na+].[Na+].[Na+]` [ADS-J1], the IC50 in the experiment with HIV-1 92UG029 turned out to be 20600 ± 5290 nM; in the experiment with HIV-1 93/BR/020 (primary strain 93/BR/020, luciferase readout, mean ± SD) it was 13000 ± 3490 nM; in the experiment on HIV-1 BCF02 (primary strain BCF02, luciferase readout, mean ± SD, read-out: IC50), 1450 ± 260 nM; in the experiment on HIV-1 US4 (GS 007) (primary strain US4 (GS 007), luciferase readout, mean ± SD, read-out: IC50), 4620 ± 760 nM; in the experiment on HIV-1 NL4-3D36G, 940 ± 30 nM; in experiment [2], 650 ± 180 nM. In addition, the IC50 was 160 ± 40 nM in the experiment with HIV-1 NL4-3(36G)V38A, 610 ± 250 nM in experiment [3], 110 ± 10 nM in [4] and 620 ± 160 nM in experiment [5]. In addition, the IC90 with HIV-1 92UG029 was found to be 32200 ± 6710 nM; with HIV-1 93/BR/020 (primary strain 93/BR/020, luciferase readout, mean ± SD, read-out: IC90), 27000 ± 4300 nM; in the experiment with HIV-1 BCF02 (primary strain BCF02, luciferase readout, mean ± SD, read-out: IC90) it was 3060 ± 420 nM; in the experiment with HIV-1 US4 (GS 007) (primary strain US4 (GS 007), luciferase readout, mean ± SD, read-out: IC90), 9900 ± 1440 nM; in the experiment on HIV-1 NL4-3D36G, 2030 ± 200 nM; in [2], 8200 ± 2650 nM. Moreover, the IC90 in the experiment on HIV-1 NL4-3(36G)V38A is 400 ± 50 nM; in [3], 4240 ± 1210 nM; in experiment [4], 330 ± 10 nM; in [5], 8390 ± 1550 nM. Further, in [1], the “inhibitory activity against K574A mutant pseudovirus” value was “exerted inhibitory activity”.

For the compound `c1cc(CN2CCCNCCNCCCNCC2)ccc1CN1CCCNCCNCCCNCC1` [AMD3100], the “inhibitory activity against the R5 and X4 HIV-1 strains” value in experiment [6] is on record as “strong inhibitory activity”.

Consider `O=C(O)c1cc(-n2cccc2)ccc1Cl` [NB-64], for which, in the experiment with HIV-1, the “effective concentration for 50% inhibition (EC50)” value is recorded as “on the µM level”.

Enfuvirtide: the IC90 in the experiment with HIV-1 93/BR/020 (93/BR/020, 12 h) is 313 ± 22 nM; in the experiment on HIV-1 BCF02 (BCF02, 12 h), 502 ± 338 nM; in the experiment with HIV-1 US4 (GS 007) (US4 (GS 007, 12 h)), 1430 ± 443 nM; in experiment [2], more than 2000 nM; in the experiment on HIV-1 NL4-3(36G)V38A, more than 2000 nM; in [3] it was more than 2000 nM. Moreover, the IC90 in experiment [4] and in [5] was more than 2000 nM each time. Besides, the IC50 with HIV-1 BCF02 (BCF02, 12 h) was 50 ± 22 nM; in the experiment with HIV-1 US4 (GS 007) (US4 (GS 007, 12 h)) it was 59 ± 10 nM; in [2] it was 895 ± 310 nM; in the experiment with HIV-1 NL4-3(36G)V38A, 279 ± 82 nM; in experiment [3], more than 2000 nM; in experiment [4] it was more than 2000 nM. This compound also registered an IC50 in experiment [5] of more than 2000 nM. Further, in experiment [6] (positive controls, single-cycle pseudovirus infection), the “inhibitory activity against the R5 and X4 HIV-1 strains” value is recorded as “strong inhibitory activity”.
